Patent US11186588B2 (AYUMI PHARMACEUTICAL CORPORATION, priority 2017, dated 2021)
Blank lines part the entries; values can stand above or below the compound they belong to.

How the values were obtained:
[1] = biological target: Recombinant BRD4 (44-168) protein (Homo sapiens (Human), UniProt O60885); experiment: BRD4-H4KAc4 binding assay (amplified luminescence proximity homogeneous assay, AlphaScreen); settings: 10 uM
In short: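 His/FLAG-tagged BRD4 (44-168) and biotinylated tetra-acetylated H4 peptide, each added as 250 nM solutions, incubated with compound 60 min at room temperature in the dark, then AlphaScreen beads 60 min. Emission 520-620 nm at 680 nm excitation, duplicates; % inhibition from blank- and DMSO-corrected signal.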

[2] = Pharmacokinetics test in rats (oral administration); type: in vivo, LEW/CrlCrlj rats
Method: In order to evaluate the transition of plasma concentration of the present compound after oral administration, pharmacokinetics was evaluated in rats. The specific method is described below.
Appropriate amounts of Example 71 and various salts thereof were weighed, triturated with an agate mortar, and suspended or dissolved in 1% methyl cellulose solution to 2 mg/mL (as a converted quantity of Example 71 considering the correction of purify).
LEW/CrlCrlj rats (male, purchased form Charles River Laboratories Japan, Inc.) were weighted, a random number based on the measured body weight was used to avoid difference in average body weight among groups, and the rats were divided into groups, wherein each groups contained 4 rats. The rats were manually held in hands and forced orally administered each administration solution comprising the compound at a dose of 5 mL/kg into stomach using a feeding needle. At 0.5, 1, 3, 6 and 24 hours after the administration of each administration solution comprising the compound, the rats were manually held in hands, and blood was collected from the jugular vein or subclavian vein using a heparin-treated injection syringe. The obtained blood was centrifuged at 1,500 G for 10 minutes, and plasma was collected as an actual sample. In addition, plasma was collected from rats before the administration of the compound in the same manner, which was used as blank plasma. The collected actual samples and blank plasma were stored in a freezer set at −70° C. until the measurement of the compound concentration. To 20 μL of each actual sample were added 20 μL of acetonitrile (available from Kishida Chemical Co., Ltd., Cat No. 140-00401), 100 μL of MilliQ water and 20 μL of the internal standard solution to prepare an analytical sample. In addition, to 20 μL of blank plasma were added 20 μL or 40 μL of acetonitrile (available from Kishida Chemical Co., Ltd., Cat No. 140-00401) and 100 μL of MilliQ water (a blank sample or a zero sample, respectively). A standard sample for a calibration curve was prepared by mixing 20 μL of blank plasma, 20 μL of the standard solution for a calibration curve in each concentration, 100 μL of MilliQ water and 20 μL of the internal standard solution. Whole amount of the prepared each sample was applied to a diatomaceous earth column for liquid-liquid extraction (available from Biotage, Cat No. 820-0200), tert-butyl methyl ether (available from Kanto Chemical Co., Inc., Cat No. 04418-5B) was added and eluted by natural dropping, and the obtained eluate was concentrated to dryness under a nitrogen stream. The residue was dissolved in the re-dissolved solution and 10 μL of each sample was injected into the LC/MS/MS apparatus.
LC/MS/MS analysis was carried out under the following conditions. Analytical column: Hydrosphere C18, 3 μm, 2.0 mm I.D.×50 mm (from YMC, Cat No. HS12S03-0502WT)
Flow rate: 0.3 mL/min. Column temperature: 50° C. Peak area calculation, peak area ratio calculation, preparation of calibration and quantification used in calculating the concentration for the LC/MS/MS analysis were carried out by Analyst ver.1.6.2 (available from AB Sciex). In addition, by using the obtained concentration measurement results, these were analyzed by Non-compartmental model of a pharmacokinetics analysis program WinNonlin ver.6.1 (Pharsight Corporation), and the pharmacokinetics parameter was calculated.

[3] = male, LEW/CrlCrlj, rat, plasma, 10 mg/kg, oral 2 mg/mL solution at 5 mL/kg, mean n = 4

Structure (SMILES): Cc1sc2c(c1C)C(c1ccc(Cl)cc1)=NN(Cc1ccccn1)c1nnc(C)n1-2 [Example 5, 4-(4-chlorophenyl)-2,3,9-trimethyl-6-(pyridin-2-ylmethyl)-6H-thieno[2,3-e][1,2,4]triazolo[3,4-c][1,2,4]triazepine]
inhibition at 10 µM [1]: 100%

Structure (SMILES): Cc1sc2c(c1C)C(c1ccc(Cl)cc1)=NN(Cc1cccnc1F)c1nnc(C)n1-2 [Example 25, 4-(4-chlorophenyl)-6-((2-fluoropyridin-3-yl)methyl)-2,3,9-trimethyl-6H-thieno[2,3-e][1,2,4]triazolo[3,4-c][1,2,4]triazepine]
inhibition at 10 µM [1]: 100%

Now from value to compound:

inhibition at 10 µM [1]: 97.8%
Structure (SMILES): Cc1sc2c(c1C)C(c1ccccc1)=NN(Cc1ccccn1)c1nnc(C)n1-2 [Example 31, 2,3,9-trimethyl-4-phenyl-6-(pyridin-2-ylmethyl)-6H-thieno[2,3-e][1,2,4]triazolo[3,4-c][1,2,4]triazepine]

inhibition at 10 µM [1]: 100%
Structure (SMILES): Cc1sc2c(c1C)C(c1ccc(Cl)cc1)=NN(Cc1cccnc1Cl)c1nnc(C)n1-2 [Example 38, 4-(4-chlorophenyl)-6-((2-chloropyridin-3-yl)methyl)-2,3,9-trimethyl-6H-thieno[2,3-e][1,2,4]triazolo[3,4-c][1,2,4]triazepine]

inhibition at 10 µM [1]: 100%
concentration at 0.5 h ([2]; male, LEW/CrlCrlj, rat, 10 mg/kg, plasma, 0.5 h after oral 2 mg/mL solution at 5 mL/kg, mean n = 4, read-out: Concentration (ng/mL), sampling time 0.5 h): 22.1 ng/mL
concentration at 1 h ([2]; male, LEW/CrlCrlj, rat, 10 mg/kg, plasma, 1 h after oral 2 mg/mL solution at 5 mL/kg, mean n = 4, read-out: Concentration (ng/mL), sampling time 1 h): 14.8 ng/mL
concentration at 3 h ([2]; male, LEW/CrlCrlj, rat, 10 mg/kg, plasma, 3 h after oral 2 mg/mL solution at 5 mL/kg, mean n = 4, read-out: Concentration (ng/mL), sampling time 3 h): 4.23 ng/mL
concentration at 6 h ([2]; male, LEW/CrlCrlj, rat, 10 mg/kg, plasma, 6 h after oral 2 mg/mL solution at 5 mL/kg, mean n = 4, read-out: Concentration (ng/mL), sampling time 6 h): 1.46 ng/mL
AUC(0-inf) [2, 3]: 61.8 ng·h/mL
AUC(0-t) [2, 3]: 42.3 ng·h/mL
half-life [2, 3]: 1.31 h
Cmax ([2]; male, LEW/CrlCrlj, rat, plasma, 10 mg/kg, oral 2 mg/mL solution at 5 mL/kg, mean n = 4, read-out: Cmax): 22.4 ng/mL
MRT ([2]; male, LEW/CrlCrlj, rat, plasma, 10 mg/kg, oral 2 mg/mL solution at 5 mL/kg, mean n = 4, read-out: MRT): 1.82 h
Tmax ([2]; male, LEW/CrlCrlj, rat, plasma, 10 mg/kg, oral 2 mg/mL solution at 5 mL/kg, mean n = 4, read-out: Tmax): 0.75 h
Kel ([2]; oral 2 mg/mL solution at 5 mL/kg, mean n = 4): 0.55 h⁻¹
Structure (SMILES): CC(=O)Nc1ccc(C2=NN(Cc3cccnc3)c3nnc(C)n3-c3sc(C)c(C)c32)cc1 [Example 71, N-(4-(2,3,9-trimethyl-6-(pyridin-3-ylmethyl)-6H-thieno[2,3-e][1,2,4]triazolo[3,4-c][1,2,4]triazepin-4-yl)phenyl)acetamide]
